Reference: the NIST ThermoML archive (doi:10.1016/j.jct.2005.03.012)
± gives the expanded uncertainty stated by the source.

Test: excess molar enthalpy (molar enthalpy of mixing); xn = mol fraction of the nth substance listed
Conditions: Liquid

CO [methanol] + O
Conditions | excess molar enthalpy [kcal/mol]
425.1 K, 10000 kPa, x1 = 0.8 | 0.0323 ± 0.00174
468.38 K, 10000 kPa, x1 = 0.4 | 0.119 ± 0.00454
468.72 K, 8500 kPa, x1 = 0.4 | 0.115 ± 0.0043
469.1 K, 10000 kPa, x1 = 0.6 | 0.114 ± 0.0043
469.29 K, 5000 kPa, x1 = 0.4 | 0.104 ± 0.00406
469.31 K, 8500 kPa, x1 = 0.6 | 0.11 ± 0.00406
469.39 K, 5000 kPa, x1 = 0.3 | 0.0932 ± 0.00359
469.49 K, 5000 kPa, x1 = 0.5 | 0.104 ± 0.00406
469.5 K, 10000 kPa, x1 = 0.2 | 0.0801 ± 0.00311
469.66 K, 8500 kPa, x1 = 0.2 | 0.0793 ± 0.00311
469.81 K, 5000 kPa, x1 = 0.2 | 0.0717 ± 0.00287
469.91 K, 5000 kPa, x1 = 0.6 | 0.096 ± 0.00359
470.63 K, 5000 kPa, x1 = 0.7 | 0.0803 ± 0.00311
470.65 K, 10000 kPa, x1 = 0.4 | 0.122 ± 0.00454
470.78 K, 10000 kPa, x1 = 0.6 | 0.115 ± 0.0043
470.8 K, 10000 kPa, x1 = 0.8 | 0.0707 ± 0.00287
471.01 K, 8500 kPa, x1 = 0.4 | 0.118 ± 0.0043
471.06 K, 8500 kPa, x1 = 0.8 | 0.0689 ± 0.00287
471.22 K, 5000 kPa, x1 = 0.1 | 0.0392 ± 0.00196
471.24 K, 5000 kPa, x1 = 0.4 | 0.104 ± 0.00406
471.34 K, 5000 kPa, x1 = 0.8 | 0.057 ± 0.00263
471.36 K, 5000 kPa, x1 = 0.5 | 0.104 ± 0.00406
471.45 K, 5000 kPa, x1 = 0.3 | 0.0941 ± 0.00359
471.49 K, 8500 kPa, x1 = 0.6 | 0.113 ± 0.0043
471.54 K, 8500 kPa, x1 = 0.2 | 0.0812 ± 0.00335
471.91 K, 5000 kPa, x1 = 0.6 | 0.0953 ± 0.00359
472.04 K, 5000 kPa, x1 = 0.7 | 0.0796 ± 0.00311
472.16 K, 10000 kPa, x1 = 0.8 | 0.0715 ± 0.00287
472.23 K, 5000 kPa, x1 = 0.9 | 0.0296 ± 0.00165
472.28 K, 5000 kPa, x1 = 0.8 | 0.0561 ± 0.00239
472.49 K, 10000 kPa, x1 = 0.2 | 0.0832 ± 0.00335
473.11 K, 5000 kPa, x1 = 0.2 | 0.0722 ± 0.00311
473.15 K, 5000 kPa, x1 = 0.1 | 0.0395 ± 0.00201
473.15 K, 5000 kPa, x1 = 0.2 | 0.0719 ± 0.00287
473.15 K, 5000 kPa, x1 = 0.3 | 0.0932 ± 0.00359
473.15 K, 5000 kPa, x1 = 0.4 | 0.103 ± 0.00382
473.15 K, 5000 kPa, x1 = 0.5 | 0.103 ± 0.00406
473.15 K, 5000 kPa, x1 = 0.6 | 0.095 ± 0.00359
473.15 K, 5000 kPa, x1 = 0.7 | 0.0788 ± 0.00311
473.15 K, 5000 kPa, x1 = 0.8 | 0.0555 ± 0.00239
473.15 K, 5000 kPa, x1 = 0.9 | 0.0298 ± 0.00167
473.15 K, 8500 kPa, x1 = 0.2 | 0.0818 ± 0.00335
473.15 K, 8500 kPa, x1 = 0.4 | 0.119 ± 0.0043
473.15 K, 8500 kPa, x1 = 0.6 | 0.113 ± 0.0043
473.15 K, 8500 kPa, x1 = 0.8 | 0.0696 ± 0.00287
473.15 K, 10000 kPa, x1 = 0.2 | 0.0827 ± 0.00335
473.15 K, 10000 kPa, x1 = 0.4 | 0.124 ± 0.00454
473.15 K, 10000 kPa, x1 = 0.6 | 0.117 ± 0.0043
473.15 K, 10000 kPa, x1 = 0.8 | 0.0735 ± 0.00311
473.17 K, 5000 kPa, x1 = 0.9 | 0.0285 ± 0.0017
473.36 K, 5000 kPa, x1 = 0.1 | 0.0397 ± 0.00198
473.78 K, 8500 kPa, x1 = 0.8 | 0.0702 ± 0.00287
474.92 K, 5000 kPa, x1 = 0.1 | 0.0401 ± 0.00203
474.92 K, 5000 kPa, x1 = 0.2 | 0.0721 ± 0.00287
474.92 K, 5000 kPa, x1 = 0.3 | 0.0937 ± 0.00359
474.92 K, 5000 kPa, x1 = 0.4 | 0.103 ± 0.00382
474.92 K, 5000 kPa, x1 = 0.5 | 0.102 ± 0.00382
474.92 K, 5000 kPa, x1 = 0.6 | 0.0941 ± 0.00359
474.92 K, 5000 kPa, x1 = 0.7 | 0.0778 ± 0.00311
474.92 K, 5000 kPa, x1 = 0.8 | 0.0536 ± 0.00239
474.92 K, 5000 kPa, x1 = 0.9 | 0.0277 ± 0.0017
475.17 K, 10000 kPa, x1 = 0.2 | 0.0854 ± 0.00335
475.17 K, 10000 kPa, x1 = 0.4 | 0.126 ± 0.00454
475.17 K, 10000 kPa, x1 = 0.6 | 0.118 ± 0.0043
475.17 K, 10000 kPa, x1 = 0.8 | 0.0755 ± 0.00311
475.47 K, 8500 kPa, x1 = 0.2 | 0.083 ± 0.00335
475.47 K, 8500 kPa, x1 = 0.4 | 0.121 ± 0.00454
475.47 K, 8500 kPa, x1 = 0.6 | 0.115 ± 0.0043
475.47 K, 8500 kPa, x1 = 0.8 | 0.0705 ± 0.00287
493.71 K, 10000 kPa, x1 = 0.4 | 0.128 ± 0.00478
494.59 K, 10000 kPa, x1 = 0.2 | 0.0893 ± 0.00359
494.68 K, 10000 kPa, x1 = 0.6 | 0.118 ± 0.0043
495.72 K, 10000 kPa, x1 = 0.4 | 0.125 ± 0.00454
496.09 K, 10000 kPa, x1 = 0.2 | 0.0884 ± 0.00359
496.33 K, 10000 kPa, x1 = 0.8 | 0.0702 ± 0.00287
497.18 K, 10000 kPa, x1 = 0.6 | 0.116 ± 0.0043
498.15 K, 8500 kPa, x1 = 0.1 | 0.0443 ± 0.00213
498.15 K, 8500 kPa, x1 = 0.2 | 0.0795 ± 0.00311
498.15 K, 8500 kPa, x1 = 0.3 | 0.0979 ± 0.00382
498.15 K, 8500 kPa, x1 = 0.4 | 0.106 ± 0.00406
498.15 K, 8500 kPa, x1 = 0.5 | 0.103 ± 0.00406
498.15 K, 8500 kPa, x1 = 0.6 | 0.0938 ± 0.00359
498.15 K, 8500 kPa, x1 = 0.7 | 0.0758 ± 0.00311
498.15 K, 8500 kPa, x1 = 0.8 | 0.0522 ± 0.00237
498.15 K, 8500 kPa, x1 = 0.9 | 0.0256 ± 0.0017
498.15 K, 10000 kPa, x1 = 0.2 | 0.0875 ± 0.00335
498.15 K, 10000 kPa, x1 = 0.4 | 0.124 ± 0.00454
498.15 K, 10000 kPa, x1 = 0.6 | 0.114 ± 0.0043
498.15 K, 10000 kPa, x1 = 0.8 | 0.0689 ± 0.00287
498.93 K, 10000 kPa, x1 = 0.8 | 0.0687 ± 0.00287
500.09 K, 8500 kPa, x1 = 0.1 | 0.0446 ± 0.00215
500.09 K, 8500 kPa, x1 = 0.2 | 0.0768 ± 0.00311
500.09 K, 8500 kPa, x1 = 0.3 | 0.0941 ± 0.00359
500.09 K, 8500 kPa, x1 = 0.4 | 0.101 ± 0.00382
500.09 K, 8500 kPa, x1 = 0.5 | 0.0978 ± 0.00382
500.09 K, 8500 kPa, x1 = 0.6 | 0.0868 ± 0.00335
500.09 K, 8500 kPa, x1 = 0.7 | 0.0683 ± 0.00287
500.09 K, 8500 kPa, x1 = 0.8 | 0.0466 ± 0.00222
500.09 K, 8500 kPa, x1 = 0.9 | 0.0222 ± 0.00163
500.24 K, 10000 kPa, x1 = 0.2 | 0.087 ± 0.00335
500.24 K, 10000 kPa, x1 = 0.4 | 0.122 ± 0.00454
500.24 K, 10000 kPa, x1 = 0.6 | 0.112 ± 0.0043
500.24 K, 10000 kPa, x1 = 0.8 | 0.0679 ± 0.00287
504.64 K, 10000 kPa, x1 = 0.4 | 0.111 ± 0.00406
